Tested on: Meloidogyne incognita
Test: Meloidogyne test (MELGIN spray treatment)
Assay type: in vivo
Settings: 20 ppm; sand with egg-larvae suspension and lettuce seeds; 100 % = no galls found
Source text: Meloidogyne-Test (MELGIN Spritzbehandlung)
Zur Herstellung einer zweckmäßigen Wirkstoffzubereitung vermischt man 1 Gewichtsteil Wirkstoff mit der angegebenen Menge Lösungsmittel und verdünnt das Konzentrat mit Wasser auf die gewünschte Konzentration.
Gefäße werden mit Sand, Wirkstofflösung, Meloidogyne incognita-Ei-Larven-Suspension und Salatsamen gefüllt. Die Salatsamen keimen und die Pflänzchen entwickeln sich. An den Wurzeln entwickeln sich die Gallen.
Nach der gewünschten Zeit wird die nematizide Wirkung an Hand der Gallenbildung in % bestimmt. Dabei bedeutet 100 %, dass keine Gallen gefunden wurden; 0 % bedeutet, dass die Zahl der Gallen an den behandelten Pflanzen der der unbehandelten Kontrolle entspricht.
Bei diesem Test zeigen z. B. die folgenden Verbindungen der Herstellungsbeispiele eine Wirkung von ≥ 80 % bei einer Aufwandmenge von 20 ppm: Beispiel Nr. I-1, I-2

Compound	nematizide Wirkung an Hand der Gallenbildung [%]
CN(Cc1ccccn1)S(=O)(=O)c1cccc(F)c1C#N [I-2]	≥ 80
CN(Cc1ccccn1)S(=O)(=O)c1ccccc1C#N [I-1, 2-Cyano-N-methyl-N-(pyridin-2-ylmethyl)benzolsulfonamid]	≥ 80
